As usually defined, the IC50 is the concentration needed to halve the response being measured. Lower therefore signals higher potency.

In experiment [1] the target is T1, LAT1 (hLAT1; LAT1/4F2hc) (Homo sapiens, UniProt Q01650). In words: cell-based. Also on record: species or system TREx HEK-hLAT1.
The target in experiment [2] is T1, LAT1 (hLAT1; LAT1/4F2hc). In words: cis-inhibition of [3H]-gabapentin uptake, TREx HEK-hLAT1 cells. The format is cell-based.

T1 sequence (Q01650 whole entry): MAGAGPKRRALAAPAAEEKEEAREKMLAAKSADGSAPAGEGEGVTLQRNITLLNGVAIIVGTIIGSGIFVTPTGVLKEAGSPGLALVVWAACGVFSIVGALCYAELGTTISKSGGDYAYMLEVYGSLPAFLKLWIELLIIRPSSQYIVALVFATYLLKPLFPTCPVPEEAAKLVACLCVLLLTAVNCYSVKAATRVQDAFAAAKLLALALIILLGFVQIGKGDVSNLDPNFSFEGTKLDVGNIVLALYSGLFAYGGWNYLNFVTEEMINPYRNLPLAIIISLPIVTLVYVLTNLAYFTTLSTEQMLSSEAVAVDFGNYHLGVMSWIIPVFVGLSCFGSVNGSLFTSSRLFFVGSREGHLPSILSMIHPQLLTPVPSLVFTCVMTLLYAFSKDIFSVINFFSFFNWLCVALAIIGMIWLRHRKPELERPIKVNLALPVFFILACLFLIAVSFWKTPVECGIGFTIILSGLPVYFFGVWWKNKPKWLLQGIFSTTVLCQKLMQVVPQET
T1 sequence (P08195 103-630 partner): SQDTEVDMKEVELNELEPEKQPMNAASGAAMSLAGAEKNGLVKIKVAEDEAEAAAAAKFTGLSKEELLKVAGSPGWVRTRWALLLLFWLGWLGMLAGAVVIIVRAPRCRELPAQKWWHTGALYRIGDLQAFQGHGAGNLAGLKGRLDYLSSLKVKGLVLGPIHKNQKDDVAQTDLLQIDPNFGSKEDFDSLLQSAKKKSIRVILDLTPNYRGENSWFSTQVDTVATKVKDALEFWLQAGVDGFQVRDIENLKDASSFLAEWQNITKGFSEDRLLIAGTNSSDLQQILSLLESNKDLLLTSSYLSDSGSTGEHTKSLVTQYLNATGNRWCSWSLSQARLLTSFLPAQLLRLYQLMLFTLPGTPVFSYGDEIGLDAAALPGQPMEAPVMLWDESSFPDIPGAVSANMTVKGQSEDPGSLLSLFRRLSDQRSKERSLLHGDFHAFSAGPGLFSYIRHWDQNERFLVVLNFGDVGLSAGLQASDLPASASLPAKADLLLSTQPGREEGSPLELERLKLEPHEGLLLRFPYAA

On LAT1 (hLAT1; LAT1/4F2hc) [1], `N[C@@H](Cc1ccccc1)C(=O)O` [L-Phe] registered an IC50 of 91.8 µM.
On to `NC(Cc1ccc(O)c(OCc2ccccc2)c1)C(=O)O` (centres unmarked) [EN2], for which the concentration for half-maximal inhibition (IC50) against LAT1 (hLAT1; LAT1/4F2hc) [2] is 63.3 µM.
On the same count and under the same terms, then `N[C@@H](CNC(=O)OCC1c2ccccc2-c2ccccc21)C(=O)O` [KH1], with 44.4 µM.
Take `N[C@@H](Cc1ccc(/N=N/c2ccccc2)cc1)C(=O)O` [EN14]: on LAT1 (hLAT1; LAT1/4F2hc) [1], the IC50 was determined as 16 µM.
At LAT1 (hLAT1; LAT1/4F2hc) [2], `N[C@@H](Cc1c[nH]c2ccc(OCc3ccccc3)cc12)C(=O)O` [KH13] showed an IC50 of 11.8 µM.

These data come from publication doi:10.1101/2022.05.03.490502v1 (biorxiv, 2022).
